Measured values as given in patent publication US20240246935A1 (Plexium, Inc., priority 2021, published 2024).

Experiments:
[1] = target: human E3 ligase component cereblon (CRBN) (Homo sapiens (Human), UniProt Q96SW2); test: Cereblon (CRBN) target engagement, NanoBRET TE Intracellular E3 Ligase Assay in transfected HEK-293T cells; conditions: read-out: CRBN Binding EC50
Experimental: HEK293T cells were harvested ca. 75% confluent with trypsin and plated (500,000 cells/well) in a 6-well tissue culture plate in 2 mL of Dulbecco's Modified Eagle Medium (DMEM)+10% Fetal Bovine Serum (FBS) and incubated overnight at 37° C.
The NanoLuc-CRBN fusion vector (Nluc-CRBN; Promega) contains the coding region of human E3 ligase component cereblon (CRBN) fused to the C-terminus of the NanoLuc luciferase coding region. A mixture of 10 ng Nluc-CRBN and 990 ng DDB1 Expression Vector (Promega) was added to 125 μL Opti-Minimum Essential Medium (Opti-MEM™; Thermo Fisher) along with 2 μL P3000 reagent (Thermo Fisher) in a 1.5 mL epppendorf tube. This solution was added to Lipofectamine 3000 transfection reagent (5 μL; Thermo Fisher) in Opti-MEM (125 μL), mixed well, and incubated for 15 minutes at room temperature. The transfection mixture was added dropwise to cells and incubated overnight at 37° ° C., 5% CO2. Following transfection, cells were washed once with PBS, and trypsin (250 μL) was added and incubated 30-45 sec to dislodge cells. Complete media (2 mL) was added to resuspend cells to form a single cell suspension. Cells were centrifuged at 320×g for 5 min at room temperature, the supernatant was removed, and the cell pellet resuspended in Opti-MEM (3 mL; wash step repeated×2). After final resuspension in 5 mL Opti-MEM, cells were counted and resuspended at 200,000 cells/mL in Opti-MEM.
Cereblon target engagement was monitored by Bioluminescence Resonance Energy Transfer (BRET) in transfected HEK-293T cells using the NanoBRET TE Intracellular E3 Ligase Assay (Promega). Briefly, 384-well plates (white opaque plates, Corning 3574, low binding surface) were seeded with transfected HEK-293T cells (38 μL/well). 2 μL of 10 μM CRBN tracer (diluted 1:5 in Tracer Dilution Buffer) was added to each well. Plates were centrifuged at 320×g for 1 min at room temperature. Test compounds were added in a 11-point dilution series (typically 10 μM to […]) using a TECAN D300e Digital Dispenser. Plates were shaken for 2 minutes on a microplate shaker to mix compounds. Plates were centrifuged at 320×g for 1 min at room temperature, and subsequently incubated for 2 hours at 37° C.
After incubation, plates were allowed to cool to room temperature for 15 minutes. 20 μL of 3× Complete NanoBRET™ Nano-Glo® Substrate plus Inhibitor Solution (Promega, 1:166 Substrate and 1:500 dilution of Extracellular NanoLuc® Inhibitor diluted in Opti-MEM) were added to each well. Plates were incubated with shaking at room temperature for 3 minutes covered with foil. Plates were read on a CLARIOstar microplate reader (BMG LabTech), measuring at 450 nm (donor emission) and 610 nm (acceptor emission). The IC50 values were determined by regression to best fit four-parameter logistic curves using GraphPad Prism.

[2] = system: IKZF2 (Helios); test: IKZF2 reporter degradation assay (HEK 293T IKZF2-mNeonGreen reporter cell line); assay type: cell-based, human; conditions: 1 μM compound, 24 hour incubation, HEK 293T IKZF2-mNeonGreen reporter
Text: Polycistronic plasmids were constructed for the mammalian expression of fluorescent reporter fusions of human transcription factors IKZF1 (Ikaros), IKZF2 (Helios), and IKZF3 (Aiolos). The respective protein sequences had their C-terminal end joined to a GGGGS linker repeated three times followed by mNeonGreen, P2A sequence, and mScarlet. The DNA sequences of the open reading frames are as follows:
IKZF1, IKZF2, and IKZF3 constructs were cloned into the UCOE Hygromycin expression vectors (Millipore Sigma). Reporter constructs were transfected using cationic lipid reagents into adherent HEK 293T cells and stable integrants were selected by treatment with 200 μg/mL hygromycin B. Clonal populations were obtained from the population of stable integrants either by limiting dilution or fluorescence activated cell sorting.
The clonal stable cell lines were maintained under constant 200 μg/mL hygromycin B selection while being passaged for use in the degradation assays. […] The fluorescence intensity of the IKZF1/2/3-mNeonGreen (FITC channel) and mScarlet (PE channel) reporters were routinely analyzed by flow cytometry to confirm consistent expression levels between experiments.
The IKZF1/IKZF2/IKZF3 degradation assays were carried out by harvesting the HEK 293T reporter cell lines and resuspending the cells in media formulated for reduced background fluorescence (FluoroBrite; Thermo Fisher). The respective cell lines were seeded at a density of 4000 cells/well into black-walled 384-well optical grade assay tissue culture plates. The cells were incubated overnight at 37° C. to allow for attachment to the assay plate. Dilutions of the compounds were prepared in DMSO from 10 mM compound stocks. The assay plates were treated with appropriate concentrations of the compounds by dispensing the DMSO dilutions in quadruplicate wells with an upper limit of 0.5% final DMSO.
After 24 hour incubation with the compounds, the assay plates were imaged on an ImageXpress Pico microscopy system (cells maintained at 37° C. during imaging) to obtain the fluorescent readouts. The assay plates were imaged in the FITC and Tetramethylrhodamine (TRITC) channels to obtain the mNeonGreen fluorescence intensity (reporter degradation data) and mScarlet fluorescence intensity (for cell segmentation). 293T-IKZF1 and 293T-IKZF3 reporter cell lines were imaged with exposures of 500 milliseconds (ms) for both FITC and TRITC channels, while the 293T-IKZF2 reporter cell line was imaged with exposures of 1000 ms for FITC and 1250 ms for TRITC. The resulting data was analyzed with Cell Reporter Xpress software using the 2-channel cell scoring analysis with a “percent positive” readout. The TRITC channel was selected for the “nuclei” segmentation with a threshold of 20 while the FITC channel was selected for the “Marker 1” segmentation and a threshold of 100 for the IKZF1 and IKZF3 reporter lines. […] The minimum segmentation width was set to 6 micrometers and the maximum segmentation width was set to 15 micrometers for all cell lines. The DCs calculations were determined by regression to best fit four-parameter logistic curves using GraphPad Prism.

Chain of human E3 ligase component cereblon (CRBN) (Q96SW2 whole entry): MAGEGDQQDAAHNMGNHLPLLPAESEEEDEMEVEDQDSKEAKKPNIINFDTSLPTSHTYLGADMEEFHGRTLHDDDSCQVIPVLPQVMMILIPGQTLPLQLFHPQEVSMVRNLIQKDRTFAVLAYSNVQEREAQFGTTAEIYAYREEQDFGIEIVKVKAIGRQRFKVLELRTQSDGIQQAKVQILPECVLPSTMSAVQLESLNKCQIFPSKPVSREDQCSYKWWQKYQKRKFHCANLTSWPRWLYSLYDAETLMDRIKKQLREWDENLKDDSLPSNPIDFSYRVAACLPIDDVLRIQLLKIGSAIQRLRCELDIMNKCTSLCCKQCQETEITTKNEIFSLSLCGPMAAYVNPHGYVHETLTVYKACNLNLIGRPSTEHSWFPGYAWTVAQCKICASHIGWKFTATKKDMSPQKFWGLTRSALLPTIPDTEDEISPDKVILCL
Chain of human E3 ligase component cereblon (CRBN) (Q16531 whole entry partner): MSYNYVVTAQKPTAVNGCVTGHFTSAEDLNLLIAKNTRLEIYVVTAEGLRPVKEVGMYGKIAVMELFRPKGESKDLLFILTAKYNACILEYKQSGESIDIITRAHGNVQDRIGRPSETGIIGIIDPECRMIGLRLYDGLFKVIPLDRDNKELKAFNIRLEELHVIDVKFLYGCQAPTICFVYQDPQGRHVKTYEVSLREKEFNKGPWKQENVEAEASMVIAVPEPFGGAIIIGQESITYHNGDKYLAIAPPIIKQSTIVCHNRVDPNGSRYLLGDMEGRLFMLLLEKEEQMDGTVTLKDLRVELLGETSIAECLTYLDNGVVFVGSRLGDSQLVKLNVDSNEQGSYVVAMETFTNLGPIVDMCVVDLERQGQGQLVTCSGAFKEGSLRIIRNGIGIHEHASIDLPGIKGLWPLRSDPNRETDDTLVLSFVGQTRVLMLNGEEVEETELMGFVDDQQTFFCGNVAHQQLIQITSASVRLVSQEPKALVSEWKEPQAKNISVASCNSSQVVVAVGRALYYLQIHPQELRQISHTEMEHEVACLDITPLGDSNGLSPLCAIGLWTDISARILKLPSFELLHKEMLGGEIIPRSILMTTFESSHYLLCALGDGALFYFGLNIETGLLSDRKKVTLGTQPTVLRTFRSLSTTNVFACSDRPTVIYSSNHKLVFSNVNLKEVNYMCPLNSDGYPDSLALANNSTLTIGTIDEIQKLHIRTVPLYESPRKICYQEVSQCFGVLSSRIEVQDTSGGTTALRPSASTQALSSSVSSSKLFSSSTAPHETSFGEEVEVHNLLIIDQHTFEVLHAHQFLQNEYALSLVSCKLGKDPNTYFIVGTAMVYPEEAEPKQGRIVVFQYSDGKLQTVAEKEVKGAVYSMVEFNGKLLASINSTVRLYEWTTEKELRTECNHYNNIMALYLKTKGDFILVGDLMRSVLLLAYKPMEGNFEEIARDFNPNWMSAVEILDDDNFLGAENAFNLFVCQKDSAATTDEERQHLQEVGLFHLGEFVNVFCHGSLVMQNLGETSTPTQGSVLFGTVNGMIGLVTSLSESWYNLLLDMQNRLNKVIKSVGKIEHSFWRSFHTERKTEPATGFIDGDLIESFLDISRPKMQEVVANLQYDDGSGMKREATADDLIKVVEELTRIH

Row | EC50 [1] [µM] | Compound | IKZF2 % Degradation @ 1 μM [2] [%]
1 | 0.014 | O=C1CCC(N2Cc3cc(O[C@@H]4CCCC[C@@H]4N4CC(c5ccc(OC(F)(F)F)cc5)C4)ccc3C2=O)C(=O)N1 (mixture of isomers) [Compound 61, Rac-3-(1-oxo-5-(((cis)-2-(3-(4-(trifluoromethoxy)phenyl)azetidin-1-yl)cyclohexyl)oxy)isoindolin-2-yl)piperidine-2,6-dione] | 36.3
2 | 0.02 | N#Cc1ccc(C2CN([C@H]3CCCC[C@@H]3Oc3ccc4c(c3)CN(C3CCC(=O)NC3=O)C4=O)C2)c(Cl)c1 (mixture of isomers) [Compound 74, Rac-3-chloro-4-(1-((trans)-2-((2-(2,6-dioxopiperidin-3-yl)-1-oxoisoindolin-5-yl)oxy)cyclohexyl)azetidin-3-yl)benzonitrile] | 63
3 | 0.012 | N#Cc1ccc(C2CN([C@@H]3CCCC[C@@H]3Oc3ccc4c(c3)CN(C3CCC(=O)NC3=O)C4=O)C2)c(Cl)c1 (mixture of isomers) [Compound 75, Rac-3-chloro-4-(1-((cis)-2-((2-(2,6-dioxopiperidin-3-yl)-1-oxoisoindolin-5-yl)oxy)cyclohexyl)azetidin-3-yl)benzonitrile] | 36.8
4 | 0.014 | N#Cc1cc(Cl)ccc1C1CN([C@H]2CCC[C@H]2Oc2ccc3c(c2)CN(C2CCC(=O)NC2=O)C3=O)C1 (mixture of isomers) [Compound 84, Rac-5-chloro-2-(1-((cis)-2-((2-(2,6-dioxopiperidin-3-yl)-1-oxoisoindolin-5-yl)oxy)cyclopentyl)azetidin-3-yl)benzonitrile] | <15
5 | 0.921 | O=C1NC(=O)C2(N3Cc4cc(O[C@H]5CCC[C@@H]5N5CC(c6ccccc6Cl)C5)ccc4C3=O)CC1C2 [Compound 82, 1-(5-(((1S,2S)-2-(3-(2-chlorophenyl)azetidin-1-yl)cyclopentyl)oxy)-1-oxoisoindolin-2-yl)-3-azabicyclo[3.1.1]heptane-2,4-dione] | –
6 | > 10 | O=C1NC(=O)C2(N3Cc4cc(O[C@H]5CCC[C@@H]5N5CC(c6ccccc6)C5)ccc4C3=O)CC1C2 [Compound 105, 1-(1-oxo-5-(((1S,2S)-2-(3-phenylazetidin-1-yl)cyclopentyl)oxy)isoindolin-2-yl)-3-azabicyclo[3.1.1]heptane-2,4-dione] | –
7 | > 10 | O=C1NC(=O)C2(N3Cc4cc(O[C@H]5CCCC[C@@H]5N5CCC(c6ccccc6)C5)ccc4C3=O)CC1C2 (stereo partly drawn) [Compound 106, 1-(1-oxo-5-(((1S,2S)-2-(3-phenylpyrrolidin-1-yl)cyclohexyl)oxy)isoindolin-2-yl)-3-azabicyclo[3.1.1]heptane-2,4-dione] | –

More lines, now with the values behind:

Row | Compound | EC50 [1] [µM] | IKZF2 % Degradation @ 1 μM [2] [%]
8 | O=C1CCC(N2Cc3cc(O[C@H]4CCCC[C@@H]4N4CC(c5ccc(OC(F)(F)F)cc5)C4)ccc3C2=O)C(=O)N1 (mixture of isomers) [Compound 60, Rac-3-(1-oxo-5-(((trans)-2-(3-(4-(trifluoromethoxy)phenyl)azetidin-1-yl)cyclohexyl)oxy)isoindolin-2-yl)piperidine-2,6-dione] | 0.015 | 84.9
9 | O=C1CCC(N2Cc3cc(O[C@H]4CCCC[C@@H]4N4CC(c5cccc(C(F)(F)F)c5)C4)ccc3C2=O)C(=O)N1 (mixture of isomers) [Compound 62, Rac-3-(1-oxo-5-(((trans)-2-(3-(3-(trifluoromethyl)phenyl)azetidin-1-yl)cyclohexyl)oxy)isoindolin-2-yl)piperidine-2,6-dione] | 0.046 | 87.5
10 | O=C1CCC(N2Cc3cc(O[C@H]4CCCC[C@H]4N4CC(c5cccc(C(F)(F)F)c5)C4)ccc3C2=O)C(=O)N1 (mixture of isomers) [Compound 63, Rac-3-(1-oxo-5-(((cis)-2-(3-(3-(trifluoromethyl)phenyl)azetidin-1-yl)cyclohexyl)oxy)isoindolin-2-yl)piperidine-2,6-dione] | 0.015 | 44.9
11 | N#Cc1cc(F)ccc1C1CN([C@@H]2CCC[C@H]2Oc2ccc3c(c2)CN(C24CC(C2)C(=O)NC4=O)C3=O)C1 (racemic) [Compound 71, Rac-2-(1-((trans)-2-((2-(2,4-dioxo-3-azabicyclo[3.1.1]heptan-1-yl)-1-oxoisoindolin-5-yl)oxy)cyclopentyl)azetidin-3-yl)-5-fluorobenzonitrile] | 0.037 | <15
12 | N#Cc1cccc(C2CN([C@H]3CCCC[C@H]3Oc3ccc4c(c3)CN(C3CCC(=O)NC3=O)C4=O)C2)c1 (mixture of isomers) [Compound 76, Rac-3-(1-((cis)-2-((2-(2,6-dioxopiperidin-3-yl)-1-oxoisoindolin-5-yl)oxy)cyclohexyl)azetidin-3-yl)benzonitrile] | 0.022 | 73.7
13 | N#Cc1cc(Cl)ccc1C1CN([C@H]2CCC[C@@H]2Oc2ccc3c(c2)CN(C2CCC(=O)NC2=O)C3=O)C1 (mixture of isomers) [Compound 83, Rac-5-chloro-2-(1-((trans)-2-((2-(2,6-dioxopiperidin-3-yl)-1-oxoisoindolin-5-yl)oxy)cyclopentyl)azetidin-3-yl)benzonitrile] | 0.036 | 48.8
14 | N#Cc1ccccc1C1CN([C@H]2CCCC[C@@H]2Oc2ccc3c(c2)CN(C24CC(C2)C(=O)NC4=O)C3=O)C1 (racemic) [Compound 95, Rac-2-(1-((trans)-2-((2-(2,4-dioxo-3-azabicyclo[3.1.1]heptan-1-yl)-1-oxoisoindolin-5-yl)oxy)cyclohexyl)azetidin-3-yl)benzonitrile] | > 10 | –
15 | N#Cc1cc(F)ccc1C1CN([C@H]2CCCC[C@H]2Oc2ccc3c(c2)CN(C2CCC(=O)NC2=O)C3=O)C1 (mixture of isomers) [Compound 102, Rac-2-(1-((cis)-2-((2-(2,6-dioxopiperidin-3-yl)-1-oxoisoindolin-5-yl)oxy)cyclohexyl)azetidin-3-yl)-5-fluorobenzonitrile] | 0.024 | –
16 | O=C1NC(=O)C2(N3Cc4cc(O[C@H]5CCCC[C@@H]5N5CC(c6ccc(F)cc6Cl)C5)ccc4C3=O)CC1C2 [Compound 85, 1-(5-(((1S,2S)-2-(3-(2-chloro-4-fluorophenyl)azetidin-1-yl)cyclohexyl)oxy)-1-oxoisoindolin-2-yl)-3-azabicyclo[3.1.1]heptane-2,4-dione] | > 10 | –
